# Measured values as given in ChEMBL document CHEMBL1759880, “A facile, one-pot synthesis, characterization and antimicrobial activity of o-hydroxy anilide derivatives and 1-substituted-1,3-dicyclohexylurea analogs of long chain carboxylic acids” (2011).
# Tests used:
# Staphylococcus aureus [1] = experiment: Antibacterial activity against Staphylococcus aureus ATCC 25923 after 24 hrs by broth dilution technique; type: functional; settings: ATCC-25923, 24 h
# Escherichia coli [2] = experiment: Antibacterial activity against Escherichia coli ATCC 25922 after 24 hrs by broth dilution technique; type: functional; settings: ATCC-25922, 24 h
# Escherichia coli [3] = experiment: Antibacterial activity against Escherichia coli ATCC 25922 after 24 hrs by disc diffusion method; type: functional; note: test concentration or dose not given here
# Klebsiella pneumoniae [4] = experiment: Antibacterial activity against Klebsiella pneumoniae clinical isolate after 24 hrs by disc diffusion method; type: functional
# Streptococcus pyogenes [5] = experiment: Antibacterial activity against Streptococcus pyogenes clinical isolate after 24 hrs by broth dilution technique; type: functional
# Klebsiella pneumoniae [6] = experiment: Antibacterial activity against Klebsiella pneumoniae clinical isolate after 24 hrs by broth dilution technique; type: functional
# Streptococcus pyogenes [7] = experiment: Antibacterial activity against Streptococcus pyogenes clinical isolate after 24 hrs by disc diffusion method; type: functional; note: test concentration or dose not given here
# Staphylococcus aureus [8] = experiment: Antibacterial activity against Staphylococcus aureus ATCC 25923 after 24 hrs by disc diffusion method; type: functional; note: test concentration or dose not given here
# Candida albicans [9] = experiment: Antifungal activity against Candida albicans after 3 to 4 days by disc diffusion method; type: functional; note: test concentration or dose not given here
# Aspergillus fumigatus [10] = experiment: Antifungal activity against Aspergillus fumigatus after 3 to 4 days by disc diffusion method; type: functional; note: test concentration or dose not given here
# Talaromyces marneffei [11] = experiment: Antifungal activity against Penicillium marneffei after 3 to 4 days by disc diffusion method; type: functional
# [12] = system: Trichophyton mentagrophytes; experiment: Antifungal activity against Trichophyton mentagrophytes after 3 to 4 days by disc diffusion method; type: functional; note: test concentration or dose not given here
# Candida albicans [13] = experiment: Antifungal activity against Candida albicans after 48 hrs by broth dilution technique; type: functional
# Aspergillus fumigatus [14] = experiment: Antifungal activity against Aspergillus fumigatus after 48 hrs by broth dilution technique; type: functional
# Talaromyces marneffei [15] = experiment: Antifungal activity against Penicillium marneffei after 48 hrs by broth dilution technique; type: functional
# [16] = system: Trichophyton mentagrophytes; experiment: Antifungal activity against Trichophyton mentagrophytes after 48 hrs by broth dilution technique; type: functional
# Pseudomonas aeruginosa [17] = experiment: Antibacterial activity against Pseudomonas aeruginosa ATCC 27853 after 24 hrs by disc diffusion method; note: test concentration or dose not given here
# Pseudomonas aeruginosa [18] = experiment: Antibacterial activity against Pseudomonas aeruginosa ATCC 27853 after 24 hrs by broth dilution technique; settings: ATCC-27853, 24 h
SMILES,MIC (Staphylococcus aureus [1]) [µg/mL],MIC (Escherichia coli [2]) [µg/mL],MIC (Streptococcus pyogenes [5]) [µg/mL],MIC (Candida albicans [13]) [µg/mL],MIC (Aspergillus fumigatus [14]) [µg/mL],MIC (Talaromyces marneffei [15]) [µg/mL],MBC (Staphylococcus aureus [1]) [µg/mL],MBC (Escherichia coli [2]) [µg/mL],diameter of the inhibition zone (DIZ) (Escherichia coli [3]) [mm],diameter of the inhibition zone (DIZ) (Klebsiella pneumoniae [4]) [mm],MBC (Streptococcus pyogenes [5]) [µg/mL],diameter of the inhibition zone (DIZ) (Streptococcus pyogenes [7]) [mm],diameter of the inhibition zone (DIZ) (Staphylococcus aureus [8]) [mm],diameter of the inhibition zone (DIZ) (Candida albicans [9]) [mm],diameter of the inhibition zone (DIZ) (Aspergillus fumigatus [10]) [mm],diameter of the inhibition zone (DIZ) (Talaromyces marneffei [11]) [mm],diameter of the inhibition zone (DIZ) [12] [mm],MFC (Candida albicans [13]) [µg/mL],MFC (Aspergillus fumigatus [14]) [µg/mL],MFC (Talaromyces marneffei [15]) [µg/mL],other results
CCCCC/C=C\CC[C@H](O)CCCCCCCC(=O)N(C(=O)NC1CCCCC1)C1CCCCC1,25,50,25,12.5,12.5,12.5,50,100,23.4,20.6,25,20.8,19.5,24.2,21.2,13.8,18.3,12.5,25,25,MBC (Klebsiella pneumoniae [6]): 100 µg/mL; MIC (Klebsiella pneumoniae [6]): 25 µg/mL; MFC [16]: 25 µg/mL; MIC [16]: 12.5 µg/mL; diameter of the inhibition zone (DIZ) (Pseudomonas aeruginosa [17]): 27.1 mm; MBC (Pseudomonas aeruginosa [18]): 100 µg/mL; MIC (Pseudomonas aeruginosa [18]): 25 µg/mL
CCCCCCCCCCCCCCCCCC(=O)Nc1ccccc1O,100,100,50,12.5,25,50,100,100,12.4,11.4,100,10.8,10.5,14.7,12.4,10.2,10.5,25,50,100,MBC (Klebsiella pneumoniae [6]): 100 µg/mL; MIC (Klebsiella pneumoniae [6]): 50 µg/mL; MFC [16]: 100 µg/mL; MIC [16]: 50 µg/mL; diameter of the inhibition zone (DIZ) (Pseudomonas aeruginosa [17]): 11.9 mm; MBC (Pseudomonas aeruginosa [18]): 100 µg/mL; MIC (Pseudomonas aeruginosa [18]): 100 µg/mL
CCCCCCCCCCCCCCCCCC(=O)N(C(=O)NC1CCCCC1)C1CCCCC1,50,50,50,25,50,50,100,100,13.3,12.7,100,11.5,11.3,15.1,13.6,10.5,12.2,50,100,100,MBC (Klebsiella pneumoniae [6]): 100 µg/mL; MIC (Klebsiella pneumoniae [6]): 100 µg/mL; MFC [16]: 100 µg/mL; MIC [16]: 50 µg/mL; diameter of the inhibition zone (DIZ) (Pseudomonas aeruginosa [17]): 12.2 mm; MBC (Pseudomonas aeruginosa [18]): 100 µg/mL; MIC (Pseudomonas aeruginosa [18]): 25 µg/mL
CCCCCCCCCCCCCCCC(=O)N(C(=O)NC1CCCCC1)C1CCCCC1,50,50,50,25,50,50,100,100,12.3,10.7,100,11.2,10.1,14.2,12.5,9.9,10.7,50,100,100,MBC (Klebsiella pneumoniae [6]): 100 µg/mL; MIC (Klebsiella pneumoniae [6]): 50 µg/mL; MFC [16]: 25 µg/mL; MIC [16]: 12.5 µg/mL; diameter of the inhibition zone (DIZ) (Pseudomonas aeruginosa [17]): 14.9 mm; MBC (Pseudomonas aeruginosa [18]): 100 µg/mL; MIC (Pseudomonas aeruginosa [18]): 25 µg/mL

# Further lines, with some results ahead:
MIC (Staphylococcus aureus [1]) [µg/mL],MIC (Escherichia coli [2]) [µg/mL],MIC (Streptococcus pyogenes [5]) [µg/mL],MIC (Candida albicans [13]) [µg/mL],MIC (Aspergillus fumigatus [14]) [µg/mL],MIC (Talaromyces marneffei [15]) [µg/mL],SMILES,MBC (Staphylococcus aureus [1]) [µg/mL],MBC (Escherichia coli [2]) [µg/mL],diameter of the inhibition zone (DIZ) (Escherichia coli [3]) [mm],diameter of the inhibition zone (DIZ) (Klebsiella pneumoniae [4]) [mm],MBC (Streptococcus pyogenes [5]) [µg/mL],diameter of the inhibition zone (DIZ) (Streptococcus pyogenes [7]) [mm],diameter of the inhibition zone (DIZ) (Staphylococcus aureus [8]) [mm],diameter of the inhibition zone (DIZ) (Candida albicans [9]) [mm],diameter of the inhibition zone (DIZ) (Aspergillus fumigatus [10]) [mm],diameter of the inhibition zone (DIZ) (Talaromyces marneffei [11]) [mm],diameter of the inhibition zone (DIZ) [12] [mm],MFC (Candida albicans [13]) [µg/mL],MFC (Aspergillus fumigatus [14]) [µg/mL],MFC (Talaromyces marneffei [15]) [µg/mL],other results
25,25,50,12.5,25,25,CCCCC/C=C\CC[C@H](O)CCCCCCCC(=O)Nc1ccccc1O,50,50,20.9,17.8,100,19.2,18.7,21.4,18.3,10.7,15.2,25,50,100,MBC (Klebsiella pneumoniae [6]): 50 µg/mL; MIC (Klebsiella pneumoniae [6]): 25 µg/mL; MFC [16]: 50 µg/mL; MIC [16]: 25 µg/mL; diameter of the inhibition zone (DIZ) (Pseudomonas aeruginosa [17]): 23.4 mm; MBC (Pseudomonas aeruginosa [18]): 25 µg/mL; MIC (Pseudomonas aeruginosa [18]): 25 µg/mL
50,100,50,50,50,50,CCCCCCCCCCCCCCCC(=O)Nc1ccccc1O,100,100,11.8,10.5,100,10.6,9.8,13.7,11.6,9.3,9.8,100,100,100,MBC (Klebsiella pneumoniae [6]): 100 µg/mL; MIC (Klebsiella pneumoniae [6]): 50 µg/mL; MFC [16]: 100 µg/mL; MIC [16]: 25 µg/mL; diameter of the inhibition zone (DIZ) (Pseudomonas aeruginosa [17]): 11.5 mm; MBC (Pseudomonas aeruginosa [18]): 100 µg/mL; MIC (Pseudomonas aeruginosa [18]): 100 µg/mL
50,25,50,25,50,50,CCCCCC[C@@H](O)C/C=C\CCCCCCCC(=O)Nc1ccccc1O,100,100,17.7,14.7,100,16.1,15.6,16.2,12.8,10.1,10.5,50,100,100,MFC [16]: 100 µg/mL; MIC [16]: 50 µg/mL; diameter of the inhibition zone (DIZ) (Pseudomonas aeruginosa [17]): 15.2 mm; MBC (Pseudomonas aeruginosa [18]): 100 µg/mL; MIC (Pseudomonas aeruginosa [18]): 25 µg/mL
